Reference: US10336792B2, “Antimicrobial peptide dendrimers” (priority 2014, dated 2019)
Converted amounts (≈) assume the structure as drawn. Positions of bridges follow the written chain, without caps; N, C: chain ends. Non-standard residues stand in square brackets, D forms with d. Residues, ends and D or L forms follow the SMILES beside them. Groups on a side chain read outwards from the residue. Chains are numbered I, II in the order given. Dap = NC[C@H](N)C(=O)O

Test system: Pseudomonas aeruginosa (strain PA01)
Experiment: microbe, parasite or virus in culture
Assay type: cell-based
Settings: strain
Method: Antimicrobial activity was assayed against Bacillus subtilis (strain BR151), Escherichia coli (strain DH5α) and Pseudomonas aeruginosa (strain PA01). Microdilution broth method was used to determine the minimal inhibitory concentration (MIC). A colony of bacteria was grown in LB-medium overnight at 37° C. The concentration was quantified by measuring absorbance at 600 nm and diluted to OD600=0.1 (1×10^8 CFU/mL). The samples were prepared as stock solutions of 1 mg mL^−1 in H2O and diluted serially by ⅔ in nutrient LB in a 96-well microtiterplate (Cornstar, polypropylene, untreated). The sample solutions (50 μL) were mixed with the diluted bacterial suspension with an OD600 nm of 0.001 (50 μL). […] The plates were incubated at 37° C. until satisfactory growth (18-24 h). For each test, two columns of the plate were kept for sterility control (SC, broth only) and growth control (GC, broth with bacterial inoculums, no antibiotics). 10 μL of a solution of MTT (0.1% in H2O) was added to each well. The minimal inhibitory concentration (MIC) was defined as the lowest concentration of the antimicrobial substance (peptide dendrimer) that inhibited visible growth of the tested bacteria (yellow) with the unaided eye. For microbiological study the linear peptide LysTyrLysLysAlaLeuLysLysLeuAlaLysLeuLeu (SEQ ID No. 1) was used as reference.
All peptides were tested for their activity against P. aeruginosa PAO1 in a broth dilution assay (Wiegand, I. et al., 2008, Nat. Protoc., 3, 163-75; Clinical and Laboratory Standards Institute document M7-A7 7th Edition) to determine the MIC (minimal inhibitory concentration) values. The stock solutions of the peptide dendrimers were diluted serially by ⅔ in nutrient LB in 96-well microtiter plates. Bacteria were grown in nutrient LB overnight at 37° C. After dilution the bacteria were added to the peptides and incubated overnight (18-24 h) at 37° C. […] The position of the amino acids between the branching units seems to be optimal if the hydrophobic amino acid is the first counting from C-terminus and the charged one is on the second position. Introducing Ala as additional hydrophobic amino acid reduces activity (MSt-120). […] Also assembling charged or hydrophobic sections between the branching units leads to loss of activity whereas altering L-amino acids to D-amino acids maintains activity leading to the hypothesis that the mechanism of action should not be receptor mediated.

Row | SMILES | MIC P. aeruginosa PAO1 [µg/mL]
1 | CC(C)C[C@H](NC(=O)[C@H](CCCCN)NC(=O)[C@H](CCCCNC(=O)[C@H](CC(C)C)NC(=O)[C@@H](N)CCCCN)NC(=O)[C@H](CC(C)C)NC(=O)[C@@H](N)CCCCN)C(=O)N[C@@H](CSSC[C@H](NC(=O)[C@H](CC(C)C)NC(=O)[C@H](CCCCN)NC(=O)[C@H](CCCCNC(=O)[C@H](CC(C)C)NC(=O)[C@@H](N)CCCCN)NC(=O)[C@H](CC(C)C)NC(=O)[C@@H](N)CCCCN)C(N)=O)C(N)=O [CCS-5 dimer, ((KL)2KKLC)2] (I: H-KLK([Leu-Lys])KLC-NH2 / II: H-KLK([Leu-Lys])KLC-NH2; disulfide I:6-II:6) | 15 (≈ 7.72 µM)
2 | CC(C)C[C@H](NC(=O)[C@H](CCCNC(=N)N)NC(=O)[C@H](CCCCNC(=O)[C@H](CC(C)C)NC(=O)[C@@H](N)CCCNC(=N)N)NC(=O)[C@H](CC(C)C)NC(=O)[C@@H](N)CCCNC(=N)N)C(=O)N[C@@H](CSSC[C@H](NC(=O)[C@H](CC(C)C)NC(=O)[C@H](CCCNC(=N)N)NC(=O)[C@H](CCCCNC(=O)[C@H](CC(C)C)NC(=O)[C@@H](N)CCCNC(=N)N)NC(=O)[C@H](CC(C)C)NC(=O)[C@@H](N)CCCNC(=N)N)C(N)=O)C(N)=O [CCS-19 dimer, ((RL)2KRLC)2] (I: H-RLK([Leu-Arg])RLC-NH2 / II: H-RLK([Leu-Arg])RLC-NH2; disulfide I:6-II:6; N-terminus assumed) | 5 (≈ 2.37 µM)
3 | CC(C)C[C@H](NC(=O)[C@H](CCCCN)NC(=O)[C@H](CNC(=O)[C@H](CC(C)C)NC(=O)[C@H](CCCCN)NC(=O)[C@H](CNC(=O)[C@H](CC(C)C)NC(=O)[C@@H](N)CCCCN)NC(=O)[C@H](CC(C)C)NC(=O)[C@@H](N)CCCCN)NC(=O)[C@H](CC(C)C)NC(=O)[C@H](CCCCN)NC(=O)[C@H](CNC(=O)[C@H](CC(C)C)NC(=O)[C@@H](N)CCCCN)NC(=O)[C@H](CC(C)C)NC(=O)[C@@H](N)CCCCN)C(N)=O [MSt-138, (KL)4(BKL)2(BKL)] (I: H-KL[Dap]([Leu-Lys])KL[Dap]KL-NH2 / II: H-KL[Dap]([Leu-Lys])KL; amide I:6-II:C) | 2 (≈ 1.02 µM)

Second part, the compound after the results:

Row | MIC P. aeruginosa PAO1 [µg/mL] | SMILES
4 | 12 (≈ 1.8 µM) | CC(C)C[C@H](NC(=O)[C@H](CCCNC(=N)N)NC(=O)[C@H](CCCCNC(=O)[C@H](CC(C)C)NC(=O)[C@H](CCCNC(=N)N)NC(=O)[C@H](CCCCNC(=O)[C@H](CC(C)C)NC(=O)[C@H](CCCNC(=N)N)NC(=O)CSC[C@H](NC(=O)[C@H](CC(C)C)NC(=O)[C@H](CCCNC(=N)N)NC(=O)[C@H](CCCCNC(=O)[C@H](CC(C)C)NC(=O)[C@@H](N)CCCNC(=N)N)NC(=O)[C@H](CC(C)C)NC(=O)[C@@H](N)CCCNC(=N)N)C(N)=O)NC(=O)[C@H](CC(C)C)NC(=O)[C@H](CCCNC(=N)N)NC(=O)CSC[C@H](NC(=O)[C@H](CC(C)C)NC(=O)[C@H](CCCNC(=N)N)NC(=O)[C@H](CCCCNC(=O)[C@H](CC(C)C)NC(=O)[C@@H](N)CCCNC(=N)N)NC(=O)[C@H](CC(C)C)NC(=O)[C@@H](N)CCCNC(=N)N)C(N)=O)NC(=O)[C@H](CC(C)C)NC(=O)[C@H](CCCNC(=N)N)NC(=O)[C@H](CCCCNC(=O)[C@H](CC(C)C)NC(=O)[C@H](CCCNC(=N)N)NC(=O)CSC[C@H](NC(=O)[C@H](CC(C)C)NC(=O)[C@H](CCCNC(=N)N)NC(=O)[C@H](CCCCNC(=O)[C@H](CC(C)C)NC(=O)[C@@H](N)CCCNC(=N)N)NC(=O)[C@H](CC(C)C)NC(=O)[C@@H](N)CCCNC(=N)N)C(N)=O)NC(=O)[C@H](CC(C)C)NC(=O)[C@H](CCCNC(=N)N)NC(=O)CSC[C@H](NC(=O)[C@H](CC(C)C)NC(=O)[C@H](CCCNC(=N)N)NC(=O)[C@H](CCCCNC(=O)[C@H](CC(C)C)NC(=O)[C@@H](N)CCCNC(=N)N)NC(=O)[C@H](CC(C)C)NC(=O)[C@@H](N)CCCNC(=N)N)C(N)=O)C(N)=O [CCS-27, (RL)8(KRLCxRL)4(KRL)2KRL]
5 | 2 (≈ 0.694 µM) | CC(C)C[C@H](NC(=O)[C@H](CCCCN)NC(=O)[C@H](CC(C)C)NC(=O)[C@H](CCCCNC(=O)[C@H](CC(C)C)NC(=O)[C@H](CCCCN)NC(=O)[C@H](CC(C)C)NC(=O)[C@H](CCCCNC(=O)[C@H](CC(C)C)NC(=O)[C@H](CCCCN)NC(=O)[C@@H](N)CC(C)C)NC(=O)[C@H](CC(C)C)NC(=O)[C@H](CCCCN)NC(=O)[C@@H](N)CC(C)C)NC(=O)[C@H](CC(C)C)NC(=O)[C@H](CCCCN)NC(=O)[C@H](CC(C)C)NC(=O)[C@H](CCCCNC(=O)[C@H](CC(C)C)NC(=O)[C@H](CCCCN)NC(=O)[C@@H](N)CC(C)C)NC(=O)[C@H](CC(C)C)NC(=O)[C@H](CCCCN)NC(=O)[C@@H](N)CC(C)C)C(N)=O [MIS-04, (LKL)4(KLKL)2(KLKL)] (I: H-LKLK([Leu-Lys-Leu])LKLKLKL-NH2 / II: H-LKLK([Leu-Lys-Leu])LKL; amide I:8-II:C)
6 | 11 (≈ 1.77 µM) | CC(C)C[C@H](NC(=O)[C@H](CC(C)C)NC(=O)[C@H](CCCCN)NC(=O)[C@H](CCCCNC(=O)[C@H](CC(C)C)NC(=O)[C@H](CC(C)C)NC(=O)[C@H](CCCCN)NC(=O)[C@H](CCCCNC(=O)[C@H](CC(C)C)NC(=O)[C@H](CC(C)C)NC(=O)[C@H](CCCCN)NC(=O)[C@H](CCCCNC(=O)[C@H](CC(C)C)NC(=O)[C@H](CC(C)C)NC(=O)[C@@H](N)CCCCN)NC(=O)[C@H](CC(C)C)NC(=O)[C@H](CC(C)C)NC(=O)[C@@H](N)CCCCN)NC(=O)[C@H](CC(C)C)NC(=O)[C@H](CC(C)C)NC(=O)[C@H](CCCCN)NC(=O)[C@H](CCCCNC(=O)[C@H](CC(C)C)NC(=O)[C@H](CC(C)C)NC(=O)[C@@H](N)CCCCN)NC(=O)[C@H](CC(C)C)NC(=O)[C@H](CC(C)C)NC(=O)[C@@H](N)CCCCN)NC(=O)[C@H](CC(C)C)NC(=O)[C@H](CC(C)C)NC(=O)[C@H](CCCCN)NC(=O)[C@H](CCCCNC(=O)[C@H](CC(C)C)NC(=O)[C@H](CC(C)C)NC(=O)[C@H](CCCCN)NC(=O)[C@H](CCCCNC(=O)[C@H](CC(C)C)NC(=O)[C@H](CC(C)C)NC(=O)[C@@H](N)CCCCN)NC(=O)[C@H](CC(C)C)NC(=O)[C@H](CC(C)C)NC(=O)[C@@H](N)CCCCN)NC(=O)[C@H](CC(C)C)NC(=O)[C@H](CC(C)C)NC(=O)[C@H](CCCCN)NC(=O)[C@H](CCCCNC(=O)[C@H](CC(C)C)NC(=O)[C@H](CC(C)C)NC(=O)[C@@H](N)CCCCN)NC(=O)[C@H](CC(C)C)NC(=O)[C@H](CC(C)C)NC(=O)[C@@H](N)CCCCN)C(N)=O [MIS-06, (KLL)8(KKLL)4(KKLL)2(KKLL)] (I: H-KLLK([Leu-Leu-Lys])KLLKKLLKKLL-NH2 / II: H-KLLK([Leu-Leu-Lys])KLLKKLL / III: H-KLLK([Leu-Leu-Lys])KLL / IV: H-KLLK([Leu-Leu-Lys])KLL; amide I:8-IV:C, I:12-II:C, II:8-III:C)
7 | 4 (≈ 0.642 µM) | CC(C)C[C@H](NC(=O)[C@H](CCCCN)NC(=O)[C@H](CC(C)C)NC(=O)[C@H](CCCCNC(=O)[C@H](CC(C)C)NC(=O)[C@H](CCCCN)NC(=O)[C@H](CC(C)C)NC(=O)[C@H](CCCCNC(=O)[C@H](CC(C)C)NC(=O)[C@H](CCCCN)NC(=O)[C@H](CC(C)C)NC(=O)[C@H](CCCCNC(=O)[C@H](CC(C)C)NC(=O)[C@H](CCCCN)NC(=O)[C@@H](N)CC(C)C)NC(=O)[C@H](CC(C)C)NC(=O)[C@H](CCCCN)NC(=O)[C@@H](N)CC(C)C)NC(=O)[C@H](CC(C)C)NC(=O)[C@H](CCCCN)NC(=O)[C@H](CC(C)C)NC(=O)[C@H](CCCCNC(=O)[C@H](CC(C)C)NC(=O)[C@H](CCCCN)NC(=O)[C@@H](N)CC(C)C)NC(=O)[C@H](CC(C)C)NC(=O)[C@H](CCCCN)NC(=O)[C@@H](N)CC(C)C)NC(=O)[C@H](CC(C)C)NC(=O)[C@H](CCCCN)NC(=O)[C@H](CC(C)C)NC(=O)[C@H](CCCCNC(=O)[C@H](CC(C)C)NC(=O)[C@H](CCCCN)NC(=O)[C@H](CC(C)C)NC(=O)[C@H](CCCCNC(=O)[C@H](CC(C)C)NC(=O)[C@H](CCCCN)NC(=O)[C@@H](N)CC(C)C)NC(=O)[C@H](CC(C)C)NC(=O)[C@H](CCCCN)NC(=O)[C@@H](N)CC(C)C)NC(=O)[C@H](CC(C)C)NC(=O)[C@H](CCCCN)NC(=O)[C@H](CC(C)C)NC(=O)[C@H](CCCCNC(=O)[C@H](CC(C)C)NC(=O)[C@H](CCCCN)NC(=O)[C@@H](N)CC(C)C)NC(=O)[C@H](CC(C)C)NC(=O)[C@H](CCCCN)NC(=O)[C@@H](N)CC(C)C)C(N)=O [MIS-08, (LKL)8(KLKL)4(KLKL)2(KLKL)] (I: H-LKLK([Leu-Lys-Leu])LKLKLKLKLKL-NH2 / II: H-LKLK([Leu-Lys-Leu])LKLKLKL / III: H-LKLK([Leu-Lys-Leu])LKL / IV: H-LKLK([Leu-Lys-Leu])LKL; amide I:8-IV:C, I:12-II:C, II:8-III:C)
